Test results reported in patent publication US10501516B2, “Peptide compound” (TAKEDA PHARMACEUTICAL COMPANY LIMITED, priority 2016, dated 2019).
Square brackets hold non-standard residues; d marks the D form. Side chains are listed from the residue outwards. Peptide text beside a SMILES is read from it. * marks the point of attachment. C18 diacid = O=C(O)CCCCCCCCCCCCCCCCC(=O)*; NMeY = CN[C@@H](Cc1ccc(O)cc1)C(=O)O; Palmitoyl = CCCCCCCCCCCCCCCC(=O)*; αMeF = C[C@](N)(Cc1ccccc1)C(=O)O; Iva = CC[C@](C)(N)C(=O)O; Aib = CC(C)(N)C(=O)O

Legend:
human GIPR = molecular target: T1, human GIPR (Homo sapiens, UniProt P48546); test: Reporter assay of human GIPR gene (agonist activity, intracellular cAMP as index); assay type: cell-based; conditions: Cre-luc reporter, hGIPR/CHO-K1 cells, 4 hours
T1 construct: expressed in transfected cells; host or cells: CHO-K1 Cre-luc reporter cells (hGIPR/CHO-K1, also called hGIPR/CRE-LUC/CHO-K1)
T1 sequence (P48546 22-466): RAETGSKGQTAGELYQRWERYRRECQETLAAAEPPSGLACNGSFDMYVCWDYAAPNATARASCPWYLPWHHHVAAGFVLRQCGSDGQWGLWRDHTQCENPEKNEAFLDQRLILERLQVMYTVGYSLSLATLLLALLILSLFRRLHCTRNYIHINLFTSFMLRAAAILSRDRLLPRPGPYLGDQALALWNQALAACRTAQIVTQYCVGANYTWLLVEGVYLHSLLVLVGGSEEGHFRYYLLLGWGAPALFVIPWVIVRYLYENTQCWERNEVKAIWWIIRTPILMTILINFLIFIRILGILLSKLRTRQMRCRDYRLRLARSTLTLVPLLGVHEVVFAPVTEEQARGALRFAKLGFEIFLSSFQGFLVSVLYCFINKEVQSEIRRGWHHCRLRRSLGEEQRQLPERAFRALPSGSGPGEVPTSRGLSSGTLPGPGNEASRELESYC
Description: Evaluation of Agonist Activity Against Human NPY2R, Human GIPR, and Human GLP-1R Using Change in Intracellular cAMP Concentration as Index
The human GIPR gene having a sequence identical to the sequence of GenBank Accession No. U39231 was cloned into pMSRα-neo vector to prepare hGIPR/pMSRα-neo. This vector was introduced to the Cre-luc reporter cells obtained in (1) to obtain transformants. Next, a cell line induced to express luciferase, i.e., hGIPR/CHO-K1 cells, were selected from the obtained transformants by the addition of GIP.
The hGIPR/CRE-LUC/CHO-K1 cells or the hGLP-1R/Crel cells were inoculated at a cell density of 25 μL/well (5,000 cells/well) to a 384-well white plate (Corning, 3570), and cultured overnight in Ham F12 medium containing 10% fetal bovine serum, 100 U/mL penicillin and 100 μg/mL streptomycin in a CO2 incubator of 37° C. On the next day, a medium containing a test compound was added at a concentration of 5 μL/well to the cells, and the resultant cells were incubated for 4 hours in a CO2 incubator of 37° C. to give the final concentration of 1 μM. SteadyGlo (Promega) was added thereto at a concentration of 30 μL/well, and the mixture was shaken with light shielded. After 30 minutes, the luciferase activity was measured using a plate reader Envision (PerkinElmer). For the GIPR agonist activity, the luciferase activity in the presence of 10 μM GIP was defined as 100%, and the luciferase activity from the addition of DMSO instead of the test compound was defined as 0%. The GIPR agonist activity was calculated with a rise in intracellular cAMP concentration as an index.

male C57BL/6J mouse = test: Evaluation of feeding suppressive action in mice; assay type: in vivo; conditions: 30 nmol/kg s.c. once a day for 3 days; 3-days cumulative food consumption vs solvent control
Procedure: The feeding suppressive activity of a test compound was examined by the method described below.
The test compound was dissolved at a concentration of 30 or 100 nmol/2 mL in a solvent (10% DMSO-containing physiological saline). The test compound solution was subcutaneously administered at a dose of 2 mL/kg to the back of each male C57BL/6J mouse at 8-9 weeks of age (20-26° C., allowed to take food and water ad libitum; raised in the 12-hour bright-12-hour dark cycle). The administration was performed once a day for 3 days. After the administration, the mouse was individually raised in a rearing cage, and given previously weighed food; food consumption for 3 days after the start of administration was measured. The food consumption was calculated by subtracting the amount of remaining food from the weight of the food given on the day of the start of administration. When the food consumption of a control group receiving administration of the solvent alone was regarded as a suppression rate of 0%, the feeding suppressive activity of each test compound was evaluated on the basis of 3-days cumulative food consumption after the start of administration. The food intake suppression rate (%) of the test compound was defined as (Food consumption of the control group−Food consumption of the test compound-administered group)/Food consumption of the control group×100.

SMILES: CC[C@H](C)[C@H](NC(=O)[C@H](C)NC(=O)[C@H](CCCCNC(=O)CNC(=O)CNC(=O)CNC(=O)CNC(=O)CCCCCCCCCCCCCCCCC(=O)O)NC(=O)[C@H](CC(=O)O)NC(=O)[C@H](CO)NC(=O)[C@@H](NC(=O)[C@](C)(Cc1ccccc1)NC(=O)[C@@H](NC(=O)CNC(=O)[C@H](CCC(=O)O)NC(=O)C(C)(C)NC(=O)[C@H](Cc1ccc(O)cc1)NC)[C@@H](C)O)[C@@H](C)O)C(=O)NC(C)(C)C(=O)N[C@@H](CC(C)C)C(=O)N[C@@H](CC(=O)O)C(=O)N[C@@H](CCCCN)C(=O)N[C@@H](CCC(N)=O)C(=O)N[C@@H](CCCNC(=N)N)C(=O)N[C@@H](CCC(N)=O)C(=O)N[C@@](C)(CC)C(=O)N[C@@H](CCC(=O)O)C(=O)N[C@@H](Cc1ccccc1)C(=O)N[C@H](C(=O)N[C@@H](CCCNC(=N)N)C(=O)N[C@@H](Cc1c[nH]cn1)C(=O)N[C@@H](CC(C)C)C(=O)N[C@@H](CC(C)C)C(=O)N[C@@H](CC(N)=O)C(=O)N[C@@H](CCCCN)C(=O)NC(C)(C)C(=O)N[C@H](C(=O)N[C@@H](CCCNC(=N)N)C(=O)N[C@@H](CCC(N)=O)C(=O)N[C@@H](CCCNC(=N)N)C(=O)N[C@@H](Cc1ccc(O)cc1)C(N)=O)[C@@H](C)O)C(C)C [Example 14] (H-[NMeY][Aib]EGT[αMeF]TSDK([Gly-Gly-Gly-Gly-C18 diacid])AI[Aib]LDKQRQ[Iva]EFVRHLLNK[Aib]TRQRY-NH2)
- EC50 (human GIPR): 0.17 nM

SMILES: CCCCCCCCCCCCCCCC(=O)NCC(=O)NCC(=O)NCC(=O)NCC(=O)NCCCC[C@H](NC(=O)[C@H](CC(=O)O)NC(=O)[C@H](CO)NC(=O)[C@@H](NC(=O)[C@](C)(Cc1ccccc1)NC(=O)[C@@H](NC(=O)CNC(=O)[C@H](CCC(=O)O)NC(=O)C(C)(C)NC(=O)[C@@H](N)Cc1ccc(O)cc1)[C@@H](C)O)[C@@H](C)O)C(=O)NC(C)(C)C(=O)N[C@H](C(=O)NC(C)(C)C(=O)N[C@@H](CC(C)C)C(=O)N[C@@H](CC(=O)O)C(=O)N[C@@H](CCCCN)C(=O)N[C@@H](CCC(N)=O)C(=O)N[C@@H](C)C(=O)N[C@@H](CCC(N)=O)C(=O)N[C@@](C)(CC)C(=O)N[C@@H](CCC(=O)O)C(=O)N[C@@H](Cc1ccccc1)C(=O)N[C@H](C(=O)N[C@@H](CCCNC(=N)N)C(=O)N[C@@H](Cc1c[nH]cn1)C(=O)N[C@@H](CC(C)C)C(=O)N[C@@H](CC(C)C)C(=O)N[C@@H](CC(N)=O)C(=O)N[C@@H](CCCCN)C(=O)NC(C)(C)C(=O)N[C@H](C(=O)N[C@@H](CCCNC(=N)N)C(=O)N[C@@H](CCC(N)=O)C(=O)N[C@@H](CCCNC(=N)N)C(=O)N[C@@H](Cc1ccc(O)cc1)C(N)=O)[C@@H](C)O)C(C)C)[C@@H](C)CC [Example 27] (H-Y[Aib]EGT[αMeF]TSDK([Gly-Gly-Gly-Gly-Palmitoyl])[Aib]I[Aib]LDKQAQ[Iva]EFVRHLLNK[Aib]TRQRY-NH2)
- Rate of feeding suppression (%) (male C57BL/6J mouse): −41.6%
- EC50 (human GIPR): 0.041 nM

SMILES: CC[C@H](C)[C@H](NC(=O)C(C)(C)NC(=O)[C@H](CCCCNC(=O)CNC(=O)CNC(=O)CNC(=O)CNC(=O)CCCCCCCCCCCCCCCCC(=O)O)NC(=O)[C@H](CC(=O)O)NC(=O)[C@H](CO)NC(=O)[C@@H](NC(=O)[C@](C)(Cc1ccccc1)NC(=O)[C@@H](NC(=O)CNC(=O)[C@H](CCC(=O)O)NC(=O)C(C)(C)NC(=O)[C@H](Cc1ccc(O)cc1)NC)[C@@H](C)O)[C@@H](C)O)C(=O)NC(C)(C)C(=O)N[C@@H](CC(C)C)C(=O)N[C@@H](CC(=O)O)C(=O)N[C@@H](CCCCN)C(=O)N[C@@H](CCC(N)=O)C(=O)N[C@@H](C)C(=O)N[C@@H](CCC(N)=O)C(=O)N[C@@](C)(CC)C(=O)N[C@@H](CCC(=O)O)C(=O)N[C@@H](Cc1ccccc1)C(=O)N[C@H](C(=O)N[C@@H](CCCNC(=N)N)C(=O)N[C@@H](Cc1c[nH]cn1)C(=O)N[C@@H](CC(C)C)C(=O)N[C@@H](CC(C)C)C(=O)N[C@@H](CC(N)=O)C(=O)N[C@@H](CCCCN)C(=O)NC(C)(C)C(=O)N[C@H](C(=O)N[C@@H](CCCNC(=N)N)C(=O)N[C@@H](CCC(N)=O)C(=O)N[C@@H](CCCNC(=N)N)C(=O)N[C@@H](Cc1ccc(O)cc1)C(N)=O)[C@@H](C)O)C(C)C [Example 30] (H-[NMeY][Aib]EGT[αMeF]TSDK([Gly-Gly-Gly-Gly-C18 diacid])[Aib]I[Aib]LDKQAQ[Iva]EFVRHLLNK[Aib]TRQRY-NH2)
- EC50 (human GIPR): 0.074 nM

SMILES: CCCCCCCCCCCCCCCC(=O)NCC(=O)NCC(=O)NCC(=O)NCC(=O)NCCCC[C@H](NC(=O)[C@H](CC(=O)O)NC(=O)[C@H](CO)NC(=O)[C@@H](NC(=O)[C@](C)(Cc1ccccc1)NC(=O)[C@@H](NC(=O)CNC(=O)[C@H](CCC(=O)O)NC(=O)C(C)(C)NC(=O)[C@@H](N)Cc1ccc(O)cc1)[C@@H](C)O)[C@@H](C)O)C(=O)N[C@@H](CO)C(=O)N[C@H](C(=O)NC(C)(C)C(=O)N[C@@H](CC(C)C)C(=O)N[C@@H](CCC(=O)O)C(=O)N[C@@H](CCCCN)C(=O)N[C@@H](CCC(N)=O)C(=O)N[C@@H](CCCNC(=N)N)C(=O)N[C@@H](CCC(N)=O)C(=O)N[C@@](C)(CC)C(=O)N[C@@H](CCC(=O)O)C(=O)N[C@@H](Cc1ccccc1)C(=O)N[C@H](C(=O)N[C@@H](CCCNC(=N)N)C(=O)N[C@@H](Cc1c[nH]cn1)C(=O)N[C@@H](CC(C)C)C(=O)N[C@@H](CC(C)C)C(=O)N[C@@H](CC(N)=O)C(=O)N[C@@H](CCCCN)C(=O)NC(C)(C)C(=O)N[C@H](C(=O)N[C@@H](CCCNC(=N)N)C(=O)N[C@@H](CCC(N)=O)C(=O)N[C@@H](CCCNC(=N)N)C(=O)N[C@@H](Cc1ccc(O)cc1)C(N)=O)[C@@H](C)O)C(C)C)[C@@H](C)CC [Example 39] (H-Y[Aib]EGT[αMeF]TSDK([Gly-Gly-Gly-Gly-Palmitoyl])SI[Aib]LEKQRQ[Iva]EFVRHLLNK[Aib]TRQRY-NH2)
- Rate of feeding suppression (%) (male C57BL/6J mouse): −49.6%
- EC50 (human GIPR): 0.041 nM
